In one test the target is N-type calcium channel (Homo sapiens, UniProt Q00975). Description: N-Channel FLIPR assay (IMR32 cells, 80 mM K+ evoked calcium flux). Type of test: cell-based. The settings on record: unit inferred.
A further test concerns NK-1 receptor. Conditions: phenylbenzoquinone-induced writhing and formalin test; Garret et al; cited from earlier work.

Sequence of N-type calcium channel (Q00975 whole entry): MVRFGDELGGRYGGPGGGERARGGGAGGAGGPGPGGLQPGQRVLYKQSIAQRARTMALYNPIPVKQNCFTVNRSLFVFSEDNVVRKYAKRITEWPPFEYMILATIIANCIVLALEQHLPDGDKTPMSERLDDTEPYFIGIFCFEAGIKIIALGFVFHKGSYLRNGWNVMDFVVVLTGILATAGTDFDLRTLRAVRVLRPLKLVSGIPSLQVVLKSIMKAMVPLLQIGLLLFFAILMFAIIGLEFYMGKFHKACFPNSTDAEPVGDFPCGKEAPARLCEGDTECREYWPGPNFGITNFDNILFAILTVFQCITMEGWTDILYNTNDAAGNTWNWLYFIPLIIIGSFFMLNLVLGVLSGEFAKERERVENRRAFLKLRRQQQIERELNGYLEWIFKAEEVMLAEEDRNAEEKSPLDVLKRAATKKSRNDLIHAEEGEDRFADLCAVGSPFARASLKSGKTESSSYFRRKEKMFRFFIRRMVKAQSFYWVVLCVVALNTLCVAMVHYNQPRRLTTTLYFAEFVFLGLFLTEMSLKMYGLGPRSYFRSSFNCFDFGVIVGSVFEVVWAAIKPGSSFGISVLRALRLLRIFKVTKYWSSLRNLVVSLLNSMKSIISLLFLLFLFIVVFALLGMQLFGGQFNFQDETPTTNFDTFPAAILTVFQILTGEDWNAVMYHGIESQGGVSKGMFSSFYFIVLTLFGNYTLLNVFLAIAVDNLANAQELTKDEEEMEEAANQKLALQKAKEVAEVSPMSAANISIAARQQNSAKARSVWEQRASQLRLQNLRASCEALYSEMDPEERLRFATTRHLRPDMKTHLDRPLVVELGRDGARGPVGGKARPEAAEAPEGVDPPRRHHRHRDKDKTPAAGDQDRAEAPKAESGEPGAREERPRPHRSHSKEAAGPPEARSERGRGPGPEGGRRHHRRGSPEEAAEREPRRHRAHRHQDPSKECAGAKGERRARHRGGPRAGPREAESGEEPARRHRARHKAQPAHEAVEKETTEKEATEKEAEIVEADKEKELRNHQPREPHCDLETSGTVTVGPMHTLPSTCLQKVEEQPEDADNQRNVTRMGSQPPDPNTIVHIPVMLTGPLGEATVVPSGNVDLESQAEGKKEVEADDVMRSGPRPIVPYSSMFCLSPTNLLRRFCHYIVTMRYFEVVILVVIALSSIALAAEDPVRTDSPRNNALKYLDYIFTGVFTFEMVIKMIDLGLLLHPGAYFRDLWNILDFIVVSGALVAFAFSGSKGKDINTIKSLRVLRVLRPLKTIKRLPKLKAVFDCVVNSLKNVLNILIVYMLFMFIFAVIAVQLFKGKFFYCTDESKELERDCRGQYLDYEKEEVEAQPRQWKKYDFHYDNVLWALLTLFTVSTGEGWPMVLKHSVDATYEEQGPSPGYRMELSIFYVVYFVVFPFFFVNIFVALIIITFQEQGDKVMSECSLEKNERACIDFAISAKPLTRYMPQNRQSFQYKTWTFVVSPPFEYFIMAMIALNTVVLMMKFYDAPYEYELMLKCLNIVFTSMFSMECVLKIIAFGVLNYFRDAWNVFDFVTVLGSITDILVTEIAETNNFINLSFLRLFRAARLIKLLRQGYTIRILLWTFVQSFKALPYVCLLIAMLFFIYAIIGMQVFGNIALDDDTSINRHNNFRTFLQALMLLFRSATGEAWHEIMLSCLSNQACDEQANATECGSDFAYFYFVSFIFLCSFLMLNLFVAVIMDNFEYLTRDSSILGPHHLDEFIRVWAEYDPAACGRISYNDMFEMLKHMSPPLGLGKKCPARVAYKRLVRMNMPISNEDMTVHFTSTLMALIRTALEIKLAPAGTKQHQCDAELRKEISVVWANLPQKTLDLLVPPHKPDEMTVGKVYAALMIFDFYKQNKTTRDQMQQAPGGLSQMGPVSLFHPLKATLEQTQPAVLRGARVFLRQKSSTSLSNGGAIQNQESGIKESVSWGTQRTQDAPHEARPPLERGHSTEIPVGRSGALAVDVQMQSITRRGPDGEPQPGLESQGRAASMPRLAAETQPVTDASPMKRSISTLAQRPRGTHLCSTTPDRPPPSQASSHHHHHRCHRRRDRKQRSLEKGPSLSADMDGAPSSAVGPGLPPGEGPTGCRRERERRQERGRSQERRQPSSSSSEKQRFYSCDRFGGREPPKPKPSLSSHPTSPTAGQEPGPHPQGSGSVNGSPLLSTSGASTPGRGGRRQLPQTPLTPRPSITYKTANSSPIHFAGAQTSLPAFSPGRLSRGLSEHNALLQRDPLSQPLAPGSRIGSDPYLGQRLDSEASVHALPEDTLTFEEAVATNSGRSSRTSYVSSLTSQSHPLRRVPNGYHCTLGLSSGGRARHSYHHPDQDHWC
Sequence of N-type calcium channel (P54289 25-1103 partner): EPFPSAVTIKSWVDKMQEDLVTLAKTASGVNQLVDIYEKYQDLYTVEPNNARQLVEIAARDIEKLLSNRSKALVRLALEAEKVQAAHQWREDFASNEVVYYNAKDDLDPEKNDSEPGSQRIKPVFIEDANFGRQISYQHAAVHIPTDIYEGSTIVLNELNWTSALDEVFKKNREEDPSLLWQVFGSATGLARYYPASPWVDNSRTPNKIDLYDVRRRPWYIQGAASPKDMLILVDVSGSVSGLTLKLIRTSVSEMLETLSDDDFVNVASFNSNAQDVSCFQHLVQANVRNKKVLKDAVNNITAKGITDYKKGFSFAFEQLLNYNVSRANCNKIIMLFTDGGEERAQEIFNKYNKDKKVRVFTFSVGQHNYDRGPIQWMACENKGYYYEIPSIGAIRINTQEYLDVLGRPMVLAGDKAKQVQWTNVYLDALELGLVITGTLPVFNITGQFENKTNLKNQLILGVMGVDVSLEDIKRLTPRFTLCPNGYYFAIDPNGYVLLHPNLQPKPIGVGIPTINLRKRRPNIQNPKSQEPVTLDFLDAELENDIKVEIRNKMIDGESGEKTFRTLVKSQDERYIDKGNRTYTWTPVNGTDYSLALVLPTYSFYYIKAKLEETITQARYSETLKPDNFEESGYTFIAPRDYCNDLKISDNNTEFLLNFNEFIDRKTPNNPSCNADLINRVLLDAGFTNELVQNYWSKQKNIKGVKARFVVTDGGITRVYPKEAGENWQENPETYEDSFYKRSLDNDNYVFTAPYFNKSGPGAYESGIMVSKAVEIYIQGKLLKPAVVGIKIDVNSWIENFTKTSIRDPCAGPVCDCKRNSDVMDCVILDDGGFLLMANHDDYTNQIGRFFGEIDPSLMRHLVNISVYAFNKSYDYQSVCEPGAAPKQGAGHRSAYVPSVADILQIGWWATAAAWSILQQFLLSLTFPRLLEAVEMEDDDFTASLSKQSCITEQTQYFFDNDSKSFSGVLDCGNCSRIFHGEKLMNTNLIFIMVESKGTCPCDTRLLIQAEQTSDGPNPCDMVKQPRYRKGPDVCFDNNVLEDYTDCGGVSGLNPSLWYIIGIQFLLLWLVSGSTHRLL
Sequence of N-type calcium channel (P54284 whole entry partner): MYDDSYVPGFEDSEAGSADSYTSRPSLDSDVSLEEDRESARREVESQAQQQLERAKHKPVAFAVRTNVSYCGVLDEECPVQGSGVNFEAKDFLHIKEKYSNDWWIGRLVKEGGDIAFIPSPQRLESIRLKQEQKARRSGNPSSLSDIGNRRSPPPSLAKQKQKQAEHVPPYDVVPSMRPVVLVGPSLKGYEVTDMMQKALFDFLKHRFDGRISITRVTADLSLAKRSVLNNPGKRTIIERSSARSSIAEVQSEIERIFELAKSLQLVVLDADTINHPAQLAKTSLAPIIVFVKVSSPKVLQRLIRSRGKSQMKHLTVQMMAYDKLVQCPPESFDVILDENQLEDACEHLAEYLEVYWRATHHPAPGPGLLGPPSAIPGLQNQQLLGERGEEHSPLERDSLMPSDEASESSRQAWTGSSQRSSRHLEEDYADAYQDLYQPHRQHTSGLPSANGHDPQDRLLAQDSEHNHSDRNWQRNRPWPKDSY

The term IC50 denotes the concentration that gives 50% inhibition. `CNc1cc(-c2cccc(F)c2)nc2ccc(-c3ccccc3Cl)cc12` [Example 12, 2-(3-fluorophenyl)-6-(2-chlorophenyl)-4-methylaminoquinoline]: the IC50 at N-type calcium channel worked out at 10.5 µM. On to `CNc1cc(-c2cccc(F)c2)nc2ccc(-c3ccccc3)cc12` [Example 13, 2-(3-fluorophenyl)-6-phenyl-4-methylaminoquinoline], for which, at N-type calcium channel, the IC50 turned out to be 8.6 µM. On the same count and under the same terms, to `CNc1cc(-c2cccc(F)c2)nc2ccc(-c3ccccc3C)cc12` [Example 14, 2-(3-fluorophenyl)-6-(2-methylphenyl)-4-methylaminoquinoline] belongs 8.82 µM; to `CNc1cc(-c2cccc(F)c2)nc2ccc(-c3ccccc3C=O)cc12` [Example 15, 2-[2-(3-fluorophenyl)-4-(methylamino)-6-quinolinyl]-benzaldehyde], 5.38 µM. Still for that read-out and setting: the same measure for `CNc1cc(-c2cccc(F)c2)nc2ccc(-c3ccccc3OC)cc12` [Example 16, 2-(3-fluorophenyl)-6-(2-methoxyphenyl)-4-methylaminoquinoline]: 5.78 µM. In the case of `COc1ccccc1CC(=N)N1C[C@@H]2C(=O)CCC(c3ccccc3)(c3ccccc3)[C@@H]2C1` [RP 67,580], the analgesia result in the test with NK-1 receptor is listed as “produced analgesia with potency comparable to that of morphine”.

The record behind these values is patent US6841680B2, “N-type calcium channel antagonists for the treatment of pain” (AstraZeneca AB, priority 2000, dated 2005).
